The results in this text go back to ChEMBL document CHEMBL1153323, “Design, synthesis, and evaluation of peptidomimetics containing Freidinger lactams as STAT3 inhibitors” (Bioorg Med Chem Lett, 2009).

Where a SMILES comes first, the peptide text is derived from it. [ ]: non-standard residue; d: D form. The star is where a group is joined. pY = N[C@@H](Cc1ccc(OP(=O)(O)O)cc1)C(=O)O; Cbz = O=C(OCc1ccccc1)*; NHBn = c1ccc(CN*)cc1

The experiment deals with Signal transducer and activator of transcription 3 (Homo sapiens, UniProt P40763). The experiment in a line: Displacement of fluorescent tagged beta-(Ala)-beta-(Ala)-G-pYLPQTV from human recombinant STAT3 by fluorescence polarization assay.
Sequence of Signal transducer and activator of transcription 3 (P40763 whole entry): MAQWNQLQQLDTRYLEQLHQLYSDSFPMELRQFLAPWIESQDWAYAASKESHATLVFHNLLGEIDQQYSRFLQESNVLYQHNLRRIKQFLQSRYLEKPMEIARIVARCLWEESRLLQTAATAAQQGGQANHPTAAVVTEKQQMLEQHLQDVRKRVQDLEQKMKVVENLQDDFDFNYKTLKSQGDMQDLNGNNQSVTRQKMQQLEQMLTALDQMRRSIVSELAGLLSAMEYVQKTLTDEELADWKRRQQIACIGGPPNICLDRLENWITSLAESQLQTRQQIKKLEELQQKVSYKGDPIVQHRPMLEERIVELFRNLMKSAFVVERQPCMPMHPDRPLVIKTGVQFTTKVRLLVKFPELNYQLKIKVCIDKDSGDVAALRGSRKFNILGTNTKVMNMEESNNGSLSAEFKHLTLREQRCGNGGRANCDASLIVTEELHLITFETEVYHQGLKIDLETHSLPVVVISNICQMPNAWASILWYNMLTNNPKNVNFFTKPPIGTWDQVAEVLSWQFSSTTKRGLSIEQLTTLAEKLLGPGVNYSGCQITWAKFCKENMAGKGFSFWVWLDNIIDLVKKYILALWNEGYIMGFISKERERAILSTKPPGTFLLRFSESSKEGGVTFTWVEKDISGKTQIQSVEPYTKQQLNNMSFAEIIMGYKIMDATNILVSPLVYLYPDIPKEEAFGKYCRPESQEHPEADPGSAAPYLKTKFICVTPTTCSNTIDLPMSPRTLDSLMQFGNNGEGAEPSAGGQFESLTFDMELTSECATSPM
What is called Ki is a dissociation constant, usually derived from enzyme kinetics or from competition with a known ligand. With `NC(=O)CC[C@H](NC(=O)CN1CCC[C@H](NC(=O)[C@H](Cc2ccc(OP(=O)(O)O)cc2)NC(=O)OCc2ccccc2)C1=O)C(=O)NCc1ccccc1`, the Ki turned out to be 3130 nM.
The same measure for `NC(=O)CC[C@H](NC(=O)CN1CCCC[C@H](NC(=O)[C@H](Cc2ccc(OP(=O)(O)O)cc2)NC(=O)OCc2ccccc2)C1=O)C(=O)NCc1ccccc1`: 190 nM; for `CC(C)C[C@H](NC(=O)[C@H](Cc1ccc(OP(=O)(O)O)cc1)NC(=O)OCc1ccccc1)C(=O)N1CCC[C@H]1C(=O)N[C@@H](CCC(N)=O)C(=O)NCc1ccccc1` (Cbz-[pY]LPQ-NHBn): 350 nM.
